Reference: EPA's ToxValDB 9.5
Values joined by “and” are separate entries in the source; they are usually repeats but may differ in a detail not shown here. Equal entries are not always repeated.

Tested on: Rattus norvegicus
Details: for LC50 / LD50: acute
[1] = reproduction developmental, oral, gavage, Wistar

COC(=O)CC(C)(C)C(Cl)CC(Cl)(Cl)Cl (stereo not given)
LC50 (inhalation, Sprague-Dawley): > 66.6 mg/m3
LD50 (oral, Sprague-Dawley): > 5000 mg/kg

CC(C)C(=O)OCC(C)(C)C(OC(=O)c1ccccc1C(=O)OCc1ccccc1)C(C)C (stereo not given)
LD50 (oral, gavage, Sprague-Dawley): > 18500 mg/kg

CC(C)CC(C)OP(=S)([S-])OC(C)CC(C)C.CC(C)CC(C)OP(=S)([S-])OC(C)CC(C)C.[Zn+2] (stereo not given)
LD50 (oral, gavage, Sprague-Dawley): ≥ 2000 mg/kg and ≤ 5000 mg/kg

COC(=O)C1C(C=C(Cl)Cl)C1(C)C (stereo not given)
LD50 (oral, gavage, Sprague-Dawley): > 5000 mg/kg
NOAEL (reproduction developmental, duration: 28 days, oral, gavage, Sprague-Dawley): 450 mg/kg-day

Cc1cccc2[nH]c([S-])nc12.Cc1cccc2[nH]c([S-])nc12.[Zn+2]
LD50 (dermal, semiocclusive, Sprague-Dawley): > 2000 mg/kg
LC50 (inhalation, Sprague-Dawley): > 2.03 µg/mL
LD50 (oral): 800 mg/kg

c1ccc(-c2cccc(-c3ccccc3)c2)cc1 [1,1':3',1''-Terphenyl]
LD50 (oral, gavage, Sprague-Dawley): 2400 mg/kg
LOAEL (% diet) (short-term, duration: 14 days, oral, diet, Wistar): 0.2

O=C1OCCO1 [1,3-Dioxolan-2-one]
LD50 (dermal, Wistar): > 2000 mg/kg
LD50 (oral, Sprague-Dawley): > 5000 mg/kg
NOAEL (reproduction developmental, duration: 9 days, oral, gavage, F, Sprague-Dawley): 1500 mg/kg-day and 750 mg/kg-day

C1=C\CC/C=C\CC/1 [1,5-Cyclooctadiene]
LD50 (dermal, occlusive, Crl:CD1): > 3520 mg/kg
LD50 (oral): 2380 mg/kg
NOAEL (short-term, duration: 2 weeks, inhalation, M): 664 mg/m3

C=CCC [1-Butene]
NOAEL (reproduction developmental, duration: 28 days, inhalation, Sprague-Dawley, generation: F0): 18400 mg/m3
NOAEL (reproduction developmental, inhalation, F, Sprague-Dawley): 18400 mg/m3
NOAEL (reproduction developmental, inhalation, M, Sprague-Dawley): 18400 mg/m3
NOAEL (reproduction developmental, inhalation, Sprague-Dawley, generation: F0): 18400 mg/m3
NOAEL (reproduction developmental, inhalation, Sprague-Dawley, generation: F1): 18400 mg/m3

O=[N+]([O-])c1cccc(Cl)c1 [1-Chloro-3-nitrobenzene]
LD50 (oral, gavage, Sprague-Dawley): 400 mg/kg

CCC(C)(C#N)N=NC(C)(C#N)CC (stereo not given) [2,2'-Azobis(2-methylbutanenitrile)]
LD50 (oral, Sprague-Dawley): 337 mg/kg

Clc1cc(Cl)c(Cl)nc1Cl [2,3,5,6-Tetrachloropyridine]
LD50 (oral): ≥ 1180 mg/kg and ≤ 1410 mg/kg
LD50 (oral, gavage): 1000 mg/kg
NOAEL (chronic, duration: 91 days, oral, diet, Sherman Wistar): 100 mg/kg-day
NOAEL (reproduction developmental, duration: 52 days, oral, gavage, F, Sprague-Dawley): 25 mg/kg-day
NOAEL (reproduction developmental, duration: 52 days, oral, gavage, M, Sprague-Dawley): 150 mg/kg-day
NOAEL (reproduction developmental, duration: 52 days, oral, gavage, Sprague-Dawley): 150 mg/kg-day
NOAEL (reproduction developmental, duration: 52 days, oral, gavage, Sprague-Dawley, generation: F1): 150 mg/kg-day
NOAEL (subchronic, duration: 52 days, oral, gavage, F, Sprague-Dawley): 25 mg/kg-day
NOAEL (subchronic, duration: 52 days, oral, gavage, M, Sprague-Dawley): 150 mg/kg-day

CC(C)(C)c1cc(C(C)(C)C)c(O)c(C(C)(C)C)c1 [2,4,6-Tris(tert-butyl)phenol]
LD50 (oral, Wistar): 1610 mg/kg and 1670 mg/kg
NOAEL (chronic, duration: 24 months, oral, diet, Wistar): 2.34 mg/kg-day

CC=C(C)C [2-Methyl-2-butene]
NOAEL (reproduction developmental, duration: 28 days, inhalation, Sprague-Dawley): 1660 mg/m3
NOAEL (reproduction developmental, inhalation, Sprague-Dawley): 20100 mg/m3

CC(CC(=O)O)CC(C)(C)C (stereo not given) [3,5,5-Trimethylhexanoic acid]
NOAEL (reproduction developmental, oral, diet, F, Sprague-Dawley): 1200 ppm
NOAEL (reproduction developmental, oral, diet, Sprague-Dawley, generation: F1): 1200 ppm

Cc1ccc(S(=O)(=O)O)cc1 [4-Methylbenzenesulfonic acid]
LD50 (oral, Wistar): 1410 mg/kg
NOAEL (short-term, duration: 28 days, oral, Wistar): > 500 mg/kg-day

C=CCCC#N [4-Pentenenitrile]
LC50 (inhalation, Sprague-Dawley): 8460 mg/m3

CSC(C)(C)/C=N/O [Aldicarb oxime]
LD50 (oral, Wistar): 809 mg/kg
LOAEL [1]: 25 mg/kg-day
NOAEL [1]: 5 mg/kg-day
